#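 Results reflect a 48-hour exposure of cells in 96-well plates to compound at five concentrations. TGI: total growth inhibition.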
# Assays:
# Test in all cases: growth of human tumour cells (NCI), 48 h
# [1] = tested on: SNB-75 CNS
# [2] = tested on: OVCAR-8 ovarian
# [3] = tested on: SF-268 CNS
# [4] = tested on: RPMI-8226 leukemia
# [5] = tested on: NCI-H226 lung
# [6] = tested on: COLO 205 colon
# [7] = tested on: NCI/ADR-RES ovarian
# [8] = tested on: ACHN renal
# [9] = tested on: MDA-MB-231 breast
# [10] = tested on: HOP-92 NSCLC
SMILES,TGI [1] [µM],TGI [2] [µM],TGI [3] [µM],TGI [4] [µM],TGI [5] [µM],TGI [6] [µM],TGI [7] [µM],TGI [8] [µM],TGI [9] [µM],TGI [10] [µM]
Cc1cc(/N=C/c2ccc(N(C)C)cc2)n(-c2ccccc2)n1,> 100,> 100,> 100,> 100,> 100,> 100,> 100,> 100,> 100,> 100
C=C1C(=O)CC2C1CC(=O)/C(C)=C/CCC(C)(O)C2O (centres undefined),28,11.6,35.6,> 37.9,61.6,7.49,28.3,4.92,25.2,15.8
O=[N+]([O-])C(=C(Nc1ccccc1)Nc1ccccc1)C(Cl)=C(Cl)Cl,36.5,48.5,40,65.9,40.4,34.1,58.2,30.7,33.3,33.9
COc1ccc(N2C(=O)CC(=O)N(NC(=O)C(C)Oc3ccccc3C)C2=S)cc1 (centres undefined),> 100,> 100,> 100,> 100,> 100,> 100,> 100,> 100,> 100,> 100
CC1=CCC([C@@](C)(O)CCCC(C)(C)N=C=S)CC1 (some centres undefined),32.4,32.7,31.6,67.3,32.1,30.2,38.9,30.5,36.7,33.1
C/C(C[n+]1ccccc1)=N\N=C(N)N,> 100,> 100,> 100,> 100,> 100,> 100,> 100,> 100,> 100,> 100
O=C1OC(C2Cc3ccc4ccccc4c3C2=O)c2ccccc21 (centres undefined),> 100,> 100,> 100,93.3,49.7,> 100,> 100,> 100,> 100,> 100
O=C(O)CCNc1ncnc2nc[nH]c12,> 100,> 100,> 100,> 100,> 100,> 100,> 100,> 100,> 100,> 100
CC(C)c1cc2c(c(O)c1O)[C@@]1(C(=O)O)CCCC(C)(C)[C@@H]1CC2,34,30.1,41.3,30.3,29.4,> 100,31.3,26.2,86.3,20.8
O=C1c2cc(-c3ccccc3)cnc2S(=O)(=O)N1c1ccc(Br)cc1,78.8,> 100,> 100,82.2,> 100,> 100,> 100,> 100,> 100,72.1
CN1CCOC1c1ccccc1O (centres undefined),> 100,> 100,> 100,> 100,> 100,> 100,> 100,> 100,> 100,> 100
O=S(=O)(O)C(CO)c1ccccc1 (centres undefined) (tested in a mixture with another compound),> 100,> 100,> 100,> 100,> 100,> 100,> 100,> 100,> 100,> 100
Oc1cc(Cl)cc2cccnc12,> 100,> 100,> 39.5,5.31,69.6,26.1,5.37,> 91.6,39.7,> 100
N[C@@H](Cc1ccccc1)C(=O)N1CCC[C@@H]1P(=O)(Oc1ccccc1)Oc1ccccc1,> 100,> 100,> 100,> 100,> 100,> 100,> 100,> 100,> 100,> 100
O=C(O)CN1CCNCCN(CC(=O)O)CCN(CC(=O)O)CCNCC1,> 100,> 100,–,> 100,> 100,> 100,> 100,> 100,> 100,> 100
O=C1NC(N2CCOCC2)=N/C1=C\c1ccco1,> 100,> 100,> 100,> 100,> 100,> 100,> 100,> 100,> 100,> 100
CC1(C)[C@@H]2CC[C@@]1(C)CN(CCC[N+](C)(C)C)C2,> 100,> 100,> 100,> 100,> 100,> 100,> 100,> 100,> 100,> 100

# Source: PubChem BioAssay (NCI)
